# According to patent publication US20130184316A1, “METHODS FOR DIAGNOSING AND TREATING CONCUSSIVE DISORDERS” (priority 2010, published 2013):
# Key:
# demyelinated axons = conditions: experimental and clinical settings, literature; cited from earlier work
# subject with PCS [1] = assay: Single subject double blind placebo controlled trial of 4AP with open-label rounds, overall findings; assay type: in vivo, human
# Description: (§1) A single subject, prospective, double blind, placebo controlled trial of 4AP was then conducted in this individual. IRB approvals were obtained from all participating institutions and Subject gave written informed consent for all parts of the study. After a 4-week medication washout period, the Subject was randomly assigned a week's course of placebo, followed by a weeklong medication washout period, followed by another week on 4-AP (10 mg twice daily). Based on the medication half-life, a one week washout period was presumed to be sufficient. Subject and assessors were blinded to treatment allocation.
# (§2) Measurements conducted at identical times at baseline and on each of the subsequent 3 weeks of the study included: • Balance and mobility assessed by Hi-Mat test (Arch. Phys. Med. Rehabil. 2006, 87(3), 437-442; hereby incorporated by reference in its entirety). • Subjective symptom assessment using the Rivermead Post-Concussion Questionnaire (Clin. Rehabil. 2005, 19(8), 878-887; hereby incorporated by reference in its entirety). • Neuropsychological assessment, consisting of the digit span and cancellation tests from the Wechsler Adult Intelligence Scale, 4th edition (Coalson, D. L., Engi-Raiford, S. Wechsler Adult Intelligence Scale, 4th Ed., in Technical and Interpretive Manual, 4th Ed., San Antonio: Pearson (2008); hereby incorporated by reference in its entirety), the California Verbal Learning Test II (CVLT) (Delis, D. C., Kramer, J. H., Kaplan, E., Ober, B. A. in CVLT-II Manual, San Antonio: The Psychological Corporation (2000); hereby incorporated by reference in its entirety), the Verbal Fluency Test (Connors Continuous Performance Test Computer II Program Version 5 Users Manual, Toronto: Multi-Health Systems, Inc. (2002); hereby incorporated by reference in its entirety), and the Connors Continuous Performance Test (J. Nervous Ment. Dis. 1985, 173(6), 353-357; hereby incorporated by reference in its entirety). • Videonystagmography (VNG) and rotary chair (RC) vestibular testing […]
# [2] = test system: multiple sclerosis patients; conditions: orally administered, over a period of days, literature; cited from earlier work
# [3] = test system: EA2 mutant Purkinje cells; conditions: literature (J. Neurosci. 2010), cited from earlier work
# downbeat nystagmus (DBN) = conditions: literature reports; cited from earlier work
# subject with PCS [4] = assay: Subjective symptom assessment, Rivermead Post-Concussion Questionnaire; assay type: in vivo, human
# Description: as §1, §2
# subject with PCS [5] = assay: Abbreviated Abnormal Involuntary Movement Scale (AIMS), blinded raters of video recordings; assay type: in vivo, human
# From the text: During testing sessions, study personnel noted relapse of paroxysmal grimacing, weakness, sialorrhea, slurred speech, and slowed responses that the Subject had experienced prior to starting 4AP. In an effort to corroborate the presence of abnormal movements, video recordings of identical testing segments were reviewed by raters, physical, occupational, and speech therapists all with experience working with TBI. Raters were blinded to subject history and study variables. Absent any established rating scales for the unusual phenomenon observed, an abbreviated version of the Abnormal Involuntary Movement Scale (AIMS) was used (Prog. Brain Res. 2007, 161, 327-338; hereby incorporated by reference in its entirety).
# subject with PCS [6] = assay: Neurofeedback evaluation; assay type: in vivo, human; conditions: following treatment of 4AP
# subject with PCS [7] = assay: Neuro-optometric evaluation; assay type: in vivo, human; conditions: following treatment of 4AP
# [8] = test system: patients with type-2 episodic ataxia (EA2); conditions: literature reports; cited from earlier work
# subject with PCS [9] = assay: Videonystagmography (VNG); assay type: in vivo, human
# Description: as §1
# Measurements conducted at identical times at baseline and on each of the subsequent 3 weeks of the study included: • Balance and mobility assessed by Hi-Mat test (Arch. Phys. Med. Rehabil. 2006, 87(3), 437-442; hereby incorporated by reference in its entirety). • Subjective symptom assessment using the Rivermead Post-Concussion Questionnaire (Clin. Rehabil. 2005, 19(8), 878-887; hereby incorporated by reference in its entirety). • Neuropsychological assessment, consisting of the digit span and cancellation tests from the Wechsler Adult Intelligence Scale, 4th edition (Coalson, D. L., Engi-Raiford, S. Wechsler Adult Intelligence Scale, 4th Ed., in Technical and Interpretive Manual, 4th Ed., San Antonio: Pearson (2008); hereby incorporated by reference in its entirety), the California Verbal Learning Test II (CVLT) (Delis, D. C., Kramer, J. H., Kaplan, E., Ober, B. A. in CVLT-II Manual, San Antonio: The Psychological Corporation (2000); hereby incorporated by reference in its entirety), the Verbal Fluency Test (Connors Continuous Performance Test Computer II Program Version 5 Users Manual, Toronto: Multi-Health Systems, Inc. (2002); hereby incorporated by reference in its entirety), and the Connors Continuous Performance Test (J. Nervous Ment. Dis. 1985, 173(6), 353-357; hereby incorporated by reference in its entirety). • Videonystagmography (VNG) and rotary chair (RC) vestibular testing
# Based on the observation of significant central findings on videonystagmography and rater-observed reduction in abnormal movements while on the active medication, the Subject was asked to return for 2 additional rounds of open-label testing, 5 and 9 weeks after conclusion of the formal study. The Subject resumed taking 4AP 10 mg twice daily immediately after the conclusion of the blinded testing.
# subject with PCS [10] = assay: California Verbal Learning Test II (CVLT); assay type: in vivo, human
# Description: as §1, §2
# subject with PCS [11] = assay: Balance and mobility assessed by Hi-Mat test; assay type: in vivo, human
# Description: as §1, §2
# [12] = test system: cerebellar Purkinje cells; conditions: in vitro, literature; cited from earlier work
# [13] = two open phases, extended medication use
# [14] = session 5 1st Open: open-label 4AP 10 mg twice daily, 5 weeks after formal study
# [15] = session 6 2nd Open: open-label 4AP 10 mg twice daily, 9 weeks after formal study
compound,measurement,setting,value
"Nc1ccncc1 [4-AP, 4-Amino pyridine]",Conduction in demyelinated axons,demyelinated axons,improve conduction
same,"Balance/mobility, symptoms and neuropsychological evaluations","subject with PCS [1]; active phase compared with the other blinded phases (baseline, placebo, washout)",similar
same,Balance/mobility and subjective symptoms,subject with PCS [1]; [13],improvement
same,Cancellation and CVLT: cognitive processing speed and auditory memory,subject with PCS [1]; [13],improved
same,Restoring nerve impulse transmission,[2],mild to moderate improvements
same,"Purkinje cell excitability, spontaneous activity or firing rate",[3]; models of episodic ataxia,does not increase
same,Functional consequence of treatment in EA2 mutant Purkinje cells,[3]; via blockage of potassium channels,restoration of the precision of pacemaking
same,Downbeat nystagmus (DBN),downbeat nystagmus (DBN),relieve downbeat nystagmus
same,Rivermead score,"subject with PCS [4]; session 4 Active: blinded, one week on 4-AP 10 mg twice daily, baseline 43, placebo 24, washout 44",41
same,Rivermead score,subject with PCS [4]; [14],21
same,Rivermead score,subject with PCS [4]; [15],7
same,"AIMS, active medication phase compared to placebo and washout conditions","subject with PCS [5]; blinded phase, 4-AP 10 mg twice daily for one week",improvement
same,AIMS Subscale,"subject with PCS [5]; session 4 Active: blinded, one week on 4-AP 10 mg twice daily, placebo 15.0, washout 9.5",4.5
same,"Neurofeedback parameters (neurosynchronization, restoration of brain activity)",subject with PCS [6],dramatic and unexpected improvements
same,Overall neuro-optometric functioning,subject with PCS [7],unexpectedly improved
same,Symptoms of EA2 (including downbeat nystagmus),[8],both relieved and prevented
same,"Head left positioning, left beating non-fatiguing nystagmus","subject with PCS [9]; test 4 (Active, 4-AP 10 mg twice daily), tests 1-3: 6, 2, 2",4 degrees/second
same,"Head left position, left beating non-fatiguing nystagmus","subject with PCS [9]; test 5 (1st open-label round, 4AP 10 mg twice daily)",2 degrees/second
same,Delay of onset of left beating nystagmus in left dix hallpike position,"subject with PCS [9]; test 6 (2nd open-label round, 4AP 10 mg twice daily), immediate on tests 1-4",50 s
same,Down beating nystagmus with head tilted down,"subject with PCS [9]; tests 1-4, including active phase",present
same,"CVLT-II immediate, percentile","subject with PCS [10]; session 4 Active: blinded, one week on 4-AP 10 mg twice daily, baseline 27, placebo 21, washout 65",18 percentile
same,"CVLT-II immediate, percentile",subject with PCS [10]; [14],69 percentile
same,"CVLT-II immediate, percentile",subject with PCS [10]; [15],93 percentile
same,HiMat score,"subject with PCS [11]; session 4 Active: blinded, one week on 4-AP 10 mg twice daily, baseline 18, placebo 28, washout 28",31
same,HiMat score,"subject with PCS [11]; session 5 1st Open: open-label 4AP 10 mg twice daily, 5 weeks after conclusion of the formal study",32
same,HiMat score,"subject with PCS [11]; session 6 2nd Open: open-label 4AP 10 mg twice daily, 9 weeks after conclusion of the formal study",50
same,Excitability of cerebellar Purkinje cells,[12],increase the excitability
